This note sets out measurements from patent US20250000855A1, “USE OF APOMORPHINE AS THERAPEUTIC AGENT FOR NECROPTOSIS-RELATED DISEASES” (INDUSTRY-ACADEMIC COOPERATION FOUNDATION, YONSEI UNIVERSITY, priority 2021, published 2025).

pKd: −log10 of the molar value.

In assay [1] the test system is MLKL translocation in transfected THP-1 cells. As to the kind of experiment: Flag-MLKL translocation to cell membrane, immunofluorescent staining, confocal microscopy. In kind it is cell-based, human. As to conditions: transfected THP-1 cells stimulated with compound and TBZ, FIG. 3. The procedure: A human monocyte cell line THP-1 and a human colon cancer cell line HT-29 were maintained in a 10% FBS-Roswell Park Memorial Institute (RPMI) 1640 medium supplemented with 2 mM L-glutamine, 100 U/ml penicillin, and 100 μg/ml streptomycin at 37° C. under a 5% CO2 condition. The THP-1 cells were differentiated into macrophages in an RPMI 1640 medium containing 500 nM Phorbol 12-myristate 13-acetate (PMA) for 3 hours. Human mixed lineage kinase domain-like protein (MLKL)-flag plasmid (Sino Biological, HG12810-CF) transfection was performed using the electroporation system (Invitrogen) of MicroPorator-mini (Digital Bio).
Cells were seeded on cell culture-treated glass chamber slides. The cells were pretreated with Z-VAD, BV6, and the indicated compound for 1 hour, and then treated with TNF-α and BV6 overnight. Subsequently, the cells were washed with phosphate-buffered saline (PBS) and fixed in 4% paraformaldehyde for 10 minutes. Before incubation for 10 minutes in 0.25% Triton X-100 in PBS, the cells were washed three more times with PBS. The cells were blocked with 5% bovine serum albumin (BSA) in PBS for 30 minutes and stained using an anti-Flag (Sigma, F7425-2MG) antibody. The nuclei were stained with DAPI (Invitrogen, 00-4959-52). Images were captured using a confocal microscope (Olympus, FV1000). […]

For the next assay, the system named is MLKL oligomerization. In words: MLKL oligomerization (tetramer and octamer bands) by non-reducing or reducing SDS-PAGE. As to conditions: cytoplasmic and membrane fractions, necroptosis induced with TBZ, FIG. 2 / FIG. 6A. In kind it is cell-based, human. The procedure: Cells were pretreated with Z-VAD (invivoGen, tlrl-vad) and a compound for 1 hour, and necroptosis was induced with TNF-α (ATGen, TNF0501) and BV6 (Biovision, B1332-5) for the indicated time. The prepared cells were appropriately treated according to analysis (Z-VAD: carbobenzoxy-valyl-alanyl-aspartyl, TNF-α: tumor necrosis factor-α, BV6: 4,4′-(1,6-hexanediyl)bis[N-methyl-L-alanyl-(2S)-2-cyclohexylglycyl-L-prolyl-β-phenyl-L-phenylalaninamide)
Cells were treated with a drug candidate and then collected using centrifugation at 4° C. and 1,500×g for 5 minutes. A supernatant was centrifuged again at 4° C. and 1,500×g for 5 minutes to remove remaining debris, concentrated at 4° C. and 14,000×g for 30 minutes using Amicon ultra-0.5 centrifugal filter unit 10K (Millipore, UFC501096), and stored. […] The extracted protein concentration was measured using a bicinchoninic acid (BCA) protein assay kit (Thermo Fisher Scientific, 23225). […]
To test whether the tetramer and octamer formation of p-MLKL for pore formation in the cell membrane is inhibited by apomorphine (APO), cells that had been treated with each molecule for the indicated time were separated into cytoplasmic and membrane fractions and analyzed through non-reducing or reducing sodium dodecyl sulfate-polyacrylamide gel electrophoresis (SDS-PAGE), and then investigated with specific antibodies (Experimental Method 1-6). […]

The next assay has as its target T1, MLKL protein (Homo sapiens, UniProt Q8NB16).
T1 construct: purchased Abcam ab241453
T1 sequence (Q8NB16 1-471): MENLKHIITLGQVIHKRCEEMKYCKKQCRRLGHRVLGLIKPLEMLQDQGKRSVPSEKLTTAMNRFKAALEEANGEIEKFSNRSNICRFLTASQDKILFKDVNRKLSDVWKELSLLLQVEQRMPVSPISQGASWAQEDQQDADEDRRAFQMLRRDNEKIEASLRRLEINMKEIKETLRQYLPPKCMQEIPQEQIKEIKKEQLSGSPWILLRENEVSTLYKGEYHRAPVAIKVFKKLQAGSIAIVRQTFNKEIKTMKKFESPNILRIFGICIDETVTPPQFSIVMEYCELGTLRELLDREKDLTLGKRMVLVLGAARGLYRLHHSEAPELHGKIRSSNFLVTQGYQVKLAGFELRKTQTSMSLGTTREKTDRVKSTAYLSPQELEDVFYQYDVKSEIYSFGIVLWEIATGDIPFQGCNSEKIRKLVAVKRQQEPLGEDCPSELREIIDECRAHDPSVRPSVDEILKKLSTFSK
In words: Surface plasmon resonance (SPR) analysis, binding to MLKL protein. As to conditions: MLKL immobilized on CM5 chip, Biacore T200, 25° C., 10 mM HEPES pH 7.4. The procedure:
(§1) The interaction between MLKL and apomorphine (=APO) was detected through surface plasmon resonance (SPR) analysis using Biacore T200 (GE Healthcare). For pH scouting, a buffer consisting of 10 mM sodium acetate (pH 4.0 to 6.0) was used. MLKL protein (Abcam, ab241453), and MLKL N-term (amino acids 1-154) protein that had been purified in a laboratory were immobilized on the surface of a sensor chip CM5 (GE Healthcare) under scouted buffer conditions. To deduce an Rligand value, a coupling process was performed based on the molecular weights of MLKL, MLKL N-term domain (MW ligand), and APO (MW analyte). Oxidized (24 hr, RT incubation) and reduced (+DTT(DL-dithiothreitol)) forms of APO were injected into a running buffer (flow rate: 10 μl/min) consisting of 10 mM HEPES (pH 7.4) at 25° C. A sensorgram was recorded and analyzed in real time using control software provided by the Biacore T200 system itself. Six or more concentrations of APO were used in combination, and each KD value was derived. All run data was calculated using BIAevaluation Software (GE Healthcare).
(§2) SPR analysis was used to analyze the interaction pattern between APO and the MLKL protein (Experimental Method 1-10). […] Here, the analysis was performed by binding MLKL and the MLKL N-term domain protein immobilized on a CM5 chip with APO having six concentrations.

In assay [2] the target is T2, MLKL N-term domain (amino acids 1-154) (Homo sapiens, UniProt Q8NB16).
T2 construct: MLKL N-term (amino acids 1-154) protein that had been purified in a laboratory; made in house
T2 sequence (Q8NB16 1-154): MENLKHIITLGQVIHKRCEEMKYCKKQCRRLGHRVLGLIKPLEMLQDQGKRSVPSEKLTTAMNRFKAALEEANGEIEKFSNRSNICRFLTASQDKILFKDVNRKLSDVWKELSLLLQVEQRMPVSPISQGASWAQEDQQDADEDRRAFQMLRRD
As to the kind of experiment: Surface plasmon resonance (SPR) analysis, binding to MLKL N-term domain. The settings on record: MLKL N-term domain immobilized on CM5 chip, Biacore T200, 25° C., 10 mM HEPES pH 7.4. The procedure: as §1, §2
On the technique in general: Surface plasmon resonance follows binding to a sensor surface in real time, without labels.

On to `CN1C(=O)C(Cc2c[nH]c3ccccc23)NC1=S` (stereo not shown) [NEC-1, necrostatin-1], for which, in assay [1], the “distribution of Flag-MLKL signals” value is listed as “mostly distributed in the cytoplasm”.
What is called pKd is the Kd on a negative log10 scale, so that one unit is a factor of ten. Consider `CN1CCc2cccc3c2[C@H]1Cc1ccc(O)c(O)c1-3` [reduced APO], for which the “intensities of the tetramer and octamer bands of MLKL” value in the assay with MLKL oligomerization is on record as “no change”. In addition, the negative logarithm of the Kd (pKd) at MLKL protein was 6.61; in assay [2] it was 2.94.
